Test results: US20160199524A1, “RADIOSENSITIVITY OF FLUOROPHORES AND USE OF RADIOPROTECTIVE AGENTS FOR DUAL-MODALITY IMAGING” (Immunomedics, Inc., priority 2015, published 2016)

Tests used:
[1] = Biodistribution of Al^18F(IMP485) alone or TF2 pretargeted; conditions: nude, mouse, in vivo, iv, total radioactivity; for tissue uptake at 3 h / tissue uptake dose at 3 h: 28 uCi, alone, 3 h post injection
Procedure: (§1) Mice were necropsied at 1 and 3 h post injection, 7 mice per time point.
(§2) Biodistribution studies were performed in Taconic nude mice bearing subcutaneous LS174T tumor xenografts.
(§3) Mice were necropsied at 1 and 3 h post injection, 6 mice per time point.

[2] = system: nude mice bearing LS174T human colonic cancer xenografts; experiment: in vivo
Procedure: as §1, §2, §3

[3] = Stability of Al^18F(IMP485)/IMP487 in human serum at 37° C.; format: in vitro ADME; conditions: four hours
Procedure: A kit containing 40 nmol of IMP485 or IMP487, 20 nmol AlCl3, 0.1 mg ascorbic acid and 0.1 g trehalose adjusted to pH 3.9 was reconstituted with purified ^18F^− in 200 μL saline and heated 106° C. for 15 min. The reaction mixture was then diluted with 800 μL water and placed on an HLB column. […] The radiolabeled peptide in […] was mixed with 250 μL of fresh human serum in a vial and incubated at 37° C.
The purified radiolabeled peptide in 50 μL 1:1 EtOH/H2O was mixed with 150 μL of human serum and placed in the HPLC autosampler heated to 37° C. and analyzed by RP-HPLC.

[4] = Taconic nude, mouse, in vivo, iv, 1 h
[5] = Taconic nude, mouse, in vivo, iv, 3 h
[6] = nude (Taconic), mouse, in vivo, iv, 3 h
[7] = nude, mouse, in vivo, iv, 28 uCi, 3 h

NC(=O)[C@@H](CCCCNC(=O)CNC(=O)CCC(=O)NCCc1c[nH]cn1)NC(=O)[C@@H](Cc1ccc(O)cc1)NC(=O)[C@@H](CCCCNC(=O)CNC(=O)CCC(=O)NCCc1c[nH]cn1)NC(=O)Cc1ccc(CN2CCN(CC(=O)O)CCN(CC(=O)O)CC2)cc1 [Al^18F(IMP485)]
tissue uptake at 3 h ([1]; % ID/g Stomach): 0.041 %ID/g | tissue uptake at 3 h ([1]; % ID/g Tumor): 0.088 %ID/g | tissue uptake dose at 3 h ([1]; % ID/org Blood): 0.013 %ID | tissue uptake dose at 3 h ([1]; % ID/org Kidney): 0.345 %ID | tissue uptake dose at 3 h ([1]; % ID/org Lg. Int.): 0.408 %ID | tissue uptake dose at 3 h ([1]; % ID/org Liver): 0.114 %ID | tissue uptake dose at 3 h ([1]; % ID/org Scapula): 0.006 %ID | tissue uptake dose at 3 h ([1]; % ID/org Sm. Int.): 0.119 %ID | tissue uptake dose at 3 h ([1]; % ID/org Spleen): 0.006 %ID | tissue uptake dose at 3 h ([1]; % ID/org Stomach): 0.016 %ID | tissue uptake dose at 3 h ([1]; % ID/org Tumor): 0.022 %ID | tissue uptake at 1 h ([1]; % ID/g Blood): 0.278 %ID/g | tissue uptake at 1 h ([1]; % ID/g Lung): 0.535 %ID/g | tissue uptake at 1 h ([1]; % ID/g Sm. Int.): 0.686 %ID/g | tissue uptake at 1 h ([1]; % ID/g Stomach): 0.534 %ID/g | tissue uptake dose at 1 h ([1]; % ID/org Blood): 0.456 %ID | tissue uptake dose at 1 h ([1]; % ID/org Lung): 0.075 %ID | tissue uptake dose at 1 h ([1]; % ID/org Stomach): 0.265 %ID | % ID/g Lg. Int. [2, 4]: 0.10 ± 0.03 % ID/g | % ID/g Liver [2, 4]: 0.24 ± 0.04 % ID/g | % ID/g Muscle [2, 4]: 0.14 ± 0.10 % ID/g | % ID/g Blood [2, 5]: 0.02 ± 0.01 % ID/g | % ID/g Lung [2, 5]: 0.24 ± 0.06 % ID/g | % ID/g Muscle [2, 5]: 0.03 ± 0.01 % ID/g | % ID/g Stomach [2, 5]: 0.03 ± 0.02 % ID/g | % ID/g Sm. Int. ([2]; alone, 1 h post injection): 0.40 ± 0.13 % ID/g | % ID/g Spleen ([2]; alone, 1 h post injection): 0.21 ± 0.18 % ID/g | % ID/g Stomach ([2]; alone, 1 h post injection): 0.13 ± 0.11 % ID/g | % ID/g Tumor ([2]; alone, 1 h post injection): 0.32 ± 0.11 % ID/g | T/NT Blood ([2]; alone, 1 h post injection): 2.0 | T/NT Kidney ([2]; alone, 1 h post injection): 0.1 | T/NT Lg. Int. ([2]; alone, 1 h post injection): 3.9 | T/NT Liver ([2]; alone, 1 h post injection): 1.8 | T/NT Lung ([2]; alone, 1 h post injection): 1.3 | T/NT Muscle ([2]; alone, 1 h post injection): 4.1 | T/NT Scapula ([2]; alone, 1 h post injection): 2.9 | T/NT Sm. Int. ([2]; alone, 1 h post injection): 0.8 | T/NT Spleen ([2]; alone, 1 h post injection): 1.9 | T/NT Stomach ([2]; alone, 1 h post injection): 3.5 | T/NT Tumor ([2]; alone, 1 h post injection): 1.0 | % ID/g Stomach ([2]; alone, 3 h post injection): 0.04 ± 0.02 % ID/g | % ID/g Tumor ([2]; alone, 3 h post injection): 0.09 ± 0.02 % ID/g | T/NT Blood ([2]; alone, 3 h post injection): 21.0 | T/NT Kidney ([2]; alone, 3 h post injection): 0.0 | T/NT Lg. Int. ([2]; alone, 3 h post injection): 0.1 | T/NT Liver ([2]; alone, 3 h post injection): 13.6 | T/NT Lung ([2]; alone, 3 h post injection): 1.3 | T/NT Muscle ([2]; alone, 3 h post injection): 203.9 | T/NT Scapula ([2]; alone, 3 h post injection): 1.2 | T/NT Sm. Int. ([2]; alone, 3 h post injection): 0.7 | T/NT Spleen ([2]; alone, 3 h post injection): 1.4 | T/NT Stomach ([2]; alone, 3 h post injection): 2.5 | T/NT Tumor ([2]; alone, 3 h post injection): 1.0 | T/NT Tumor ([2]; mouse, in vivo): 1 | % ID/g Lg. Int. ([2]; nude (Taconic), mouse, in vivo, iv, 28 uCi, 1 h): 0.08 ± 0.02 % ID/g | % ID/g Lung ([2]; nude (Taconic), mouse, in vivo, iv, 28 uCi, 3 h): 0.07 ± 0.02 % ID/g | % ID/g Scapula [2, 6]: 0.06 ± 0.02 % ID/g | % ID/g Spleen [2, 6]: 0.25 ± 0.11 % ID/g | % ID/g Liver [2, 7]: 0.10 ± 0.05 % ID/g | % ID/g Muscle [2, 7]: 0.01 ± 0.01 % ID/g | % ID/g Blood ([2]; nude, mouse, in vivo, iv, 1 h): 0.28 ± 0.07 % ID/g | % ID/g Stomach ([2]; nude, mouse, in vivo, iv, 1 h): 0.53 ± 1.18 % ID/g | stability in human serum [3]: stable
